Results reported in EP0173480A2, “The antiviral use of phyllanthostatins” (priority 1984, dated 1986).
In brackets after ≈: the same amount, converted by molar mass. Where two headings read alike, the source gives them in different places.

Tests used:
coxsackie A21 = type: cell-based; settings: ML cells
[1] = test system: Herpes Simplex virus type 2 (HSV-2, strain 35D); test: Genital HSV-2 infection of female mice, intravaginal treatment, survival; type: in vivo; settings: for mice survived (of 14): study of Table 3; for %S (percent survivors) / MDD (mean day of death): N 14; for deaths: zinc acetate (0.1M)
HSV-2 = test: Cell culture antiviral activity, agar-well zones of cytotoxicity / plaque inhibition; settings: 50 pg of test compound (so in the source)
HA-1 = test: as above; settings: 50 pg of test compound (so in the source)
[2] = test system: Herpes Simplex virus type 2 (HSV-2, strain 35D); test: Genital HSV-2 infection of female mice, virus titers in vaginal secretions; type: in vivo; settings: for Mean virus titer in swabs of mice which shed virus / Nv/Nt, swabs with virus/total swabs: 8.0 x 10^4 PFU;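 as to Mean virus titer in swabs of mice which shed virus: titer expressed as log PFU per ml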
[3] = test system: herpes simplex virus type 2 (HSV-2, MS); test: Inhibition of virus replication, virus yield by plaque method; type: cell-based; settings: for HSV-2 virus yield: Vero cells
[4] = test system: coxsackie B3 virus (Nancy Strain); test: Inhibition of virus replication, virus yield in Vero cells; type: cell-based
Coe = test: Cell culture antiviral activity, agar-well zones of cytotoxicity / plaque inhibition; settings: 50 pg of test compound (so in the source)
[5] = Drug toxicity in non-infected female mice treated intravaginally; type: in vivo; settings: compared with saline
Experimental: Where indicated, non-infected mice (5 per group) were treated identically (3 times daily x 5) in order to determine drug toxicity. The groups of mice were weighed at the indicated times.
Non-infected female mice were treated intravaginally with the same drugs, at the same concentrations and with a schedule (3 x daily x 5 days). Animal weights were determined at the time of initiation of treatment (day 0), and again on day 4 (after 12 treatments were given), and again after treatments had been concluded on days 7, 11 and 15. The weights of the groups of mice treated with placebo or the high drug concentrations are shown on Table 3, and the differences in weights in Figure 4. […] Weight gains in mice treated with phyllanthoside (1 mg/ml) were slightly less than that of the above compounds, but by day 15, the mice had the same gain as those treated with phyllanthostatin I, saline or zinc acetate.

E.R. = settings: 50 pg of test compound (so in the source)
Vacc. = settings: 50 pg of test compound (so in the source)
PR-8 = settings: 50 pg of test compound (so in the source)
HSV-1 = test: Cell culture antiviral activity, agar-well zones of cytotoxicity / plaque inhibition; settings: 50 pg of test compound (so in the source)
[6] = test system: VSV (vesicular stomatitis virus); type: cell-based; settings: Vero cells; higher drug concentrations (5 and 50 µg/ml) compared with 0.5
[7] = test system: herpes simplex virus type 1 (HSV-1, McIntyre); test: Inhibition of virus replication, virus yield by plaque method; type: cell-based
Vero cells = test: Cytotoxicity of drugs, absorbance at 260 nm of lysed cell monolayers
[8] = as above; settings: monkey, vero cells, drug concentration which reduces the OD260 of lysed cells by 50%
[9] = higher drug concentrations (5 and 50 µg/ml) compared with 0.5
[10] = 8.0 x 10^3 PFU/0.1 ml, mg/ml cell empty (1 mg/ml in upper section)
[11] = 8.0 x 10^4 PFU/0.1 ml, 1 mg/ml intravaginally
[12] = day 1 after HSV-2 inoc., 0.5 mg/ml
[13] = day 1 after HSV-2 inoc., 1 mg/ml
[14] = day 2 after HSV-2 inoc., 0.5 mg/ml
[15] = day 2 after HSV-2 inoc., 1 mg/ml
[16] = day 3 after HSV-2 inoc., 0.5 mg/ml
[17] = day 3 after HSV-2 inoc., 1 mg/ml
[18] = day 4 after HSV-2 inoc., 0.5 mg/ml
[19] = day 4 after HSV-2 inoc., 1 mg/ml
[20] = day 7 after HSV-2 inoc., 0.5 mg/ml
[21] = day 7 after HSV-2 inoc., 1 mg/ml
[22] = therapeutic index with ID50 Vero 72 hrs.
[23] = therapeutic index with ID50 Vero 91 hrs.
[24] = 8.0 x 10^3 PFU/0.1 ml, mg/ml cell empty (44 mg/ml in upper section)
[25] = 8.0 x 10^4 PFU/0.1 ml, 44 mg/ml intravaginally

Compound: CC(=O)O[C@@H]1[C@@H](O)[C@H](O[C@H]2[C@H](OC(=O)[C@H]3CC[C@@H]4[C@H](C3)O[C@@]3(C[C@H](OC(=O)/C=C/c5ccccc5)[C@H](C)CO3)[C@]43CO3)O[C@H](C)[C@@H](O)[C@@H]2OC(C)=O)O[C@H](C)[C@H]1O [Phyllanthoside]
- coxsackie A21 virus yield (coxsackie A21; 5 µg/ml (below 5 µg per ml)): inhibitory for both viruses
- coxsackie A21 virus yield (coxsackie A21; below 5 µg per ml (i.e., 0.5 or 1), study of b36): reduced titers of coxsackie A21
- coxsackie A21 virus yield (coxsackie A21; [9]): further reductions in all virus yields
- mice survived (of 14) ([1]; 8.0 x 10^3 PFU in 0.1 ml): 13
- %S (percent survivors) [1, 10]: 93%
- MDD (mean day of death) [1, 10]: 14.0 days
- mice survived (of 14) ([1]; 8.0 x 10^4 PFU in 0.1 ml): 9
- %S (percent survivors) [1, 11]: 64%
- MDD (mean day of death) [1, 11]: 9.0 days
- protection of mice from lethal genital HSV-2 infection, summary in words ([1]; intravaginally from one hour after inoculation, 3 times daily): most effective of the compounds
- mice survived ([1]; second study, 8.0 x 10^4 PFU in 0.1 ml, 0.5 mg/ml): 1
- mice protected from death (of 10) ([1]; second study, 8.0 x 10^4 PFU in 0.1 ml, 1 mg/ml): 7
- zone of cytotoxicity (HSV-2; first figure of the cell): 3
- zone of antiviral activity (viral plaque inhibition) (HSV-2; second figure of the cell): 4
- zone of cytotoxicity (HA-1; first figure of the cell): 4
- zone of antiviral activity (viral plaque inhibition) (HA-1; second figure of the cell): 0
- mean titer less than placebo treated groups ([2]; 0.5 mg/ml, after the first 3 days): about 0.6 logs
- mean titer less than placebo treated groups ([2]; 0.5 mg/ml, first 3 days): about 1 log
- mean titer less than saline or DMSO-saline treated groups ([2]; 1 mg/ml, day 4): about 0.6 logs
- mean titer less than saline or DMSO-saline treated groups ([2]; 1 mg/ml, days 1, 2 and 3): about one
- Mean virus titer in swabs of mice which shed virus [2, 12]: 2.46 log PFU/ml
- Nv/Nt, swabs with virus/total swabs [2, 12]: 5/10
- Nv/Nt, swabs with virus/total swabs ([2]; day 1 after HSV-2 inoc., 0.5 mg/ml, listed as phyllanthoside): 5
- Mean virus titer in swabs of mice which shed virus [2, 13]: 2.83 log PFU/ml
- Nv/Nt, swabs with virus/total swabs [2, 13]: 2/10
- Nv/Nt, swabs with virus/total swabs ([2]; day 1 after HSV-2 inoc., 1 mg/ml, listed as phyllanthoside): 2
- Mean virus titer in swabs of mice which shed virus [2, 14]: 3.45 log PFU/ml
- Nv/Nt, swabs with virus/total swabs [2, 14]: 7/10
- Mean virus titer in swabs of mice which shed virus [2, 15]: 2.98 log PFU/ml
- Nv/Nt, swabs with virus/total swabs [2, 15]: 3/10
- Nv/Nt, swabs with virus/total swabs ([2]; day 2 after HSV-2 inoc., 1 mg/ml, listed as phyllanthoside): 3
- Mean virus titer in swabs of mice which shed virus [2, 16]: 3.41 log PFU/ml
- Nv/Nt, swabs with virus/total swabs [2, 16]: 8/10
- Mean virus titer in swabs of mice which shed virus [2, 17]: 3.11 log PFU/ml
- Nv/Nt, swabs with virus/total swabs [2, 17]: 5/10
- Nv/Nt, swabs with virus/total swabs ([2]; day 3 after HSV-2 inoc., 1 mg/ml, listed as phyllanthoside): 5
- Mean virus titer in swabs of mice which shed virus [2, 18]: 3.73 log PFU/ml
- Nv/Nt, swabs with virus/total swabs [2, 18]: 8/10
- Mean virus titer in swabs of mice which shed virus [2, 19]: 3.72 log PFU/ml
- Nv/Nt, swabs with virus/total swabs [2, 19]: 4/10
- Nv/Nt, swabs with virus/total swabs ([2]; day 4 after HSV-2 inoc., 1 mg/ml, listed as phyllanthoside): 4
- Mean virus titer in swabs of mice which shed virus [2, 20]: 3.98 log PFU/ml
- Nv/Nt, swabs with virus/total swabs [2, 20]: 2/4
- Mean virus titer in swabs of mice which shed virus [2, 21]: 2.94 log PFU/ml
- Nv/Nt, swabs with virus/total swabs [2, 21]: 3/8
- ED90 MS ([3]; HSV-2 in Vero cells, drug concentration reducing virus titers by 90%, 1440 min): 1.4958 µg per ml
- EC90 ([3]; Human alphaherpesvirus 2, Vero, 24 h, read-out: ED90 MS): 1.5 µg/mL (≈ 1.86 µM)
- HSV-2 virus yield ([3]; 0.5 µg/ml): most susceptible virus to inhibition
- HSV-2 virus yield [3, 9]: further reductions in all virus yields
- T - ID50/ED90, MS [3, 22]: 0.7989
- T - ID50/ED90, MS [3, 23]: 2.3854
- coxsackie B3 virus yield ([4]; 5 µg per ml): inhibitory for both viruses
- coxsackie B3 virus yield ([4]; below 5 µg per ml (i.e., 0.5 or 1)): unaffected
- zone of cytotoxicity (Coe; first figure of the cell): 3
- zone of antiviral activity (viral plaque inhibition) (Coe; second figure of the cell): 0
- weight gains ([5]; 1 mg/ml intravaginally 3 x daily x 5 days, zinc acetate groups, same gain by day 15): slightly less
- zone of cytotoxicity (E.R.; first figure of the cell): 2 (2 - 20-30 mm)
- zone of antiviral activity (viral plaque inhibition) (E.R.; second figure of the cell): 4
- zone of cytotoxicity (Vacc.; first figure of the cell): 4/4
- zone of antiviral activity (viral plaque inhibition) (Vacc.; second figure of the cell): 4/4
- zone of cytotoxicity (PR-8; first figure of the cell): 3/3
- zone of antiviral activity (viral plaque inhibition) (PR-8; second figure of the cell): 3/3
- zone of cytotoxicity (HSV-1; first figure of the cell): 4/4
- zone of antiviral activity (viral plaque inhibition) (HSV-1; second figure of the cell): 4/4
- VSV virus yield [6]: further reductions in all virus yields
- HSV-1 virus yield ([7]; Vero cells, higher drug concentrations (5 and 50 µg/ml) compared with 0.5): further reductions in all virus yields
- T - ID50/ED90, McIntyre [7, 22]: 0.6402
- T - ID50/ED90, McIntyre [7, 23]: 1.9115
- OD260 of lysed cells (Vero cells; Vero cells, 0.5 µg per ml, greatly increased OD260 after 72 hours): decreased the OD260 during 72 hours
- cell growth (OD260 of lysed cells) (Vero cells; Vero cells, 1 µg per ml, OD260 increased dramatically at 96 hours): cell growth was suppressed to a greater extent during the first 72 hours
- ID50 Vero 91 hrs. (Vero cells; drug concentration which reduces the OD260 of lysed cells by 50%, table head 91 hrs., b38 96 hours, 5460 min): 3.568 ug per ml
- CC50 at 72 h ([8]; ID50 Vero 72 hrs., 72 hours): 1200 µg/mL (≈ 1480 µM)
- CC50 at 91 h ([8]; ID50 Vero 91 hrs., table head 91 hrs., b38 96 hours): 3.57 µg/mL (≈ 4.44 µM)

Compound: zinc acetate [Zn(OAc)2, reference compound]
- %S (percent survivors) [1, 24]: 79%
- MDD (mean day of death) [1, 24]: 3.0 days
- deaths ([1]; 8.0 x 10^3 PFU, two of the three deaths on day 4, probably not virus related): 21.4%
- %S (percent survivors) [1, 25]: 71%
- MDD (mean day of death) [1, 25]: 8.3 days
- deaths ([1]; 8.0 x 10^4 PFU): 50%
- mice protected from lethal infection ([1]; second study, 8.0 x 10^4 PFU in 0.1 ml, positive control, concentration not given, 10 mice): 80%
- Mean virus titer in swabs of mice which shed virus ([2]; day 1 after HSV-2 inoc., Zn(OAc)2 concentration not given, value in brackets): (2.60) log PFU/ml
- Nv/Nt, swabs with virus/total swabs ([2]; day 1 after HSV-2 inoc., Zn(OAc)2 concentration not printed): 1/10
- Nv/Nt, swabs with virus/total swabs ([2]; day 1 after HSV-2 inoc., Zn(OAc)2 concentration not printed, listed as zinc acetate): One of 10
- Nv/Nt, swabs with virus/total swabs ([2]; day 2 after HSV-2 inoc., Zn(OAc)2 concentration not given): 1/10
- Mean virus titer in swabs of mice which shed virus ([2]; day 2 after HSV-2 inoc., Zn(OAc)2 concentration not given, value in brackets): (3.54) log PFU/ml
- Nv/Nt, swabs with virus/total swabs ([2]; day 3 after HSV-2 inoc., Zn(OAc)2 concentration not given): 1/10
- Mean virus titer in swabs of mice which shed virus ([2]; day 3 after HSV-2 inoc., Zn(OAc)2 concentration not given, value in brackets): (3.42) log PFU/ml
- Nv/Nt, swabs with virus/total swabs ([2]; day 4 after HSV-2 inoc., Zn(OAc)2 concentration not given): 1/9
- Mean virus titer in swabs of mice which shed virus ([2]; day 4 after HSV-2 inoc., Zn(OAc)2 concentration not given, value in brackets): (4.54) log PFU/ml
- Nv/Nt, swabs with virus/total swabs ([2]; day 7 after HSV-2 inoc., Zn(OAc)2 concentration not given): 0/8
- weight changes ([5]; zinc acetate intravaginally 3 x daily x 5 days): essentially the same
